The source made the active and inactive calls. The calls are words filed in the database; no cut-off is given here.
What was measured:
Mus musculus [1] = test: Sedative activity in NMRI mouse assessed as reduction in spontaneous locomotor activity at 10 mg/kg administered 30 mins prior to testing relative to control; type: organism-based; set-up: dose 10 mg/kg; conditions: in vivo, 0.5 h
Mus musculus [2] = test: Antipsychotic activity in NMRI mouse assessed as reduction in methamphetamine-induced locomotor activity at 10 mg/kg administered 30 mins prior to testing measured for 60 mins relative to control; type: functional, organism-based; set-up: dose 10 mg/kg
Mus musculus [3] = test: Antipsychotic activity in NMRI mouse assessed as reduction in phencyclidine-induced locomotor activity at 3 mg/kg administered 30 mins prior to testing measured for 60 mins; type: functional, organism-based; set-up: dose 3 mg/kg
Mus musculus [4] = test: Antipsychotic activity in NMRI mouse assessed as reduction in phencyclidine-induced locomotor activity at 10 mg/kg administered 30 mins prior to testing measured for 60 mins; type: functional, organism-based; set-up: dose 10 mg/kg
Rattus norvegicus [5] = test: Induction of c-Fos protein expression in rat nucleus accumbens core subregion at 3 mg/kg, ip after 1 hr by light microscopy; type: functional, organism-based; set-up: dose 3 mg/kg
Rattus norvegicus [6] = test: Induction of c-Fos protein expression in rat nucleus accumbens core subregion at 10 mg/kg, ip after 1 hr by light microscopy; type: functional, organism-based; set-up: dose 10 mg/kg
Rattus norvegicus [7] = test: Induction of c-Fos protein expression in ip dosed rat dorsolateral striatum after 1 hr by light microscopy; type: functional, organism-based
Histamine H1 receptor = Histamine H1 receptor (Cavia porcellus, UniProt P31389); test: Displacement of [3H]pyrilamine from histamine H1 receptor in guinea pig cerebellum; type: tissue-based
Histamine H1 receptor, sequence (P31389 whole entry): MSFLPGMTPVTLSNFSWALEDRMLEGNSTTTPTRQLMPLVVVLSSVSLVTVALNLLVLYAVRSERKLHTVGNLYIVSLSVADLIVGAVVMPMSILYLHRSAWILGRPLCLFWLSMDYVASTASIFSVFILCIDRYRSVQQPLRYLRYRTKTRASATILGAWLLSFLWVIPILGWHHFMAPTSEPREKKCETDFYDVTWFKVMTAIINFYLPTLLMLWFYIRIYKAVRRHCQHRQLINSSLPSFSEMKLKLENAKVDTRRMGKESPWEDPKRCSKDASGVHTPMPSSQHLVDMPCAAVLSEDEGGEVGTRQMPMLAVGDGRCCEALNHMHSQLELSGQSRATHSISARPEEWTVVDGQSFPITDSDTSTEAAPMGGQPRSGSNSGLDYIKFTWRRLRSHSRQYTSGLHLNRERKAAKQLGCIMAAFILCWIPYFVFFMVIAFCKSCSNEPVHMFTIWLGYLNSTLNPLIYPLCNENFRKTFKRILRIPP

[8] = target: T1, Adrenergic receptor alpha-2 (Rattus norvegicus, UniProt P22086+P19328+P22909); test: Displacement of [3H]clonidine from adrenergic alpha2 receptor in rat cerebral cortex by filtration technique; type: tissue-based
T1 sequence (P22086 whole entry): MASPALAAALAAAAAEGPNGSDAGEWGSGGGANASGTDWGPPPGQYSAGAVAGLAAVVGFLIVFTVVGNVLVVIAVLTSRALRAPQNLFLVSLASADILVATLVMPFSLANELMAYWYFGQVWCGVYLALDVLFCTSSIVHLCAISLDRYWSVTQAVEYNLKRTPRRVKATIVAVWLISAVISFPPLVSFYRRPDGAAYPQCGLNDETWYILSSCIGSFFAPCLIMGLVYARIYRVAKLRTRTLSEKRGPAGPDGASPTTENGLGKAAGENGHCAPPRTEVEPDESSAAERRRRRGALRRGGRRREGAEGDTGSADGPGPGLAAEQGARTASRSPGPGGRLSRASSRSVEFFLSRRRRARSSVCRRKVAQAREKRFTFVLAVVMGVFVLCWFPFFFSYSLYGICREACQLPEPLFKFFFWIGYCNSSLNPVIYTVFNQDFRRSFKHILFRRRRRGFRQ
T1 sequence (P19328 whole entry): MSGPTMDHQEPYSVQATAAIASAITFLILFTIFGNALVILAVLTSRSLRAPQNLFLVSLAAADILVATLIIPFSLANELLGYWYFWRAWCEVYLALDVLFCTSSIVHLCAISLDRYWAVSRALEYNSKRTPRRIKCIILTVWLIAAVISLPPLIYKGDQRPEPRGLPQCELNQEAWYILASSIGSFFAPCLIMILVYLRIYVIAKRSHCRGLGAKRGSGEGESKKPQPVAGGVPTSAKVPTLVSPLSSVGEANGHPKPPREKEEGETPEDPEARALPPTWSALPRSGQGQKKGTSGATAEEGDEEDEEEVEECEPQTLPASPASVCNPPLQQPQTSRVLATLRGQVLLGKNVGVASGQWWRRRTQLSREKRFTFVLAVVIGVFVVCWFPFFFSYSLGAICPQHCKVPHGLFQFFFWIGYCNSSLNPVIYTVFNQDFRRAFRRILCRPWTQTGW
T1 sequence (P22909 whole entry): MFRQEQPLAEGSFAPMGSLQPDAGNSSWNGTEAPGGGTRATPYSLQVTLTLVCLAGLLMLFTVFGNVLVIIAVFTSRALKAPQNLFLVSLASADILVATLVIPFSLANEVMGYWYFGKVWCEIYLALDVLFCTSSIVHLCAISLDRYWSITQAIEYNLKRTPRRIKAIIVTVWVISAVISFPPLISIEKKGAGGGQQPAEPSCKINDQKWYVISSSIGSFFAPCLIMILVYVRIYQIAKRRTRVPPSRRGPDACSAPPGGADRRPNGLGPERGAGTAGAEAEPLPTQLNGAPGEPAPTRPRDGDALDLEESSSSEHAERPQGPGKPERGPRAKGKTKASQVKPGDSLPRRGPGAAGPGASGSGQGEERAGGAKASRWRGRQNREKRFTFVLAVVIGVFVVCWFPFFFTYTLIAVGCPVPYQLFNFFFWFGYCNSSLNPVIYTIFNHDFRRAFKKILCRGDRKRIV

D(3) dopamine receptor [9] = target: T2, D(3) dopamine receptor (Homo sapiens, UniProt P35462); test: Antagonist activity at human dopamine D3 receptor expressed in CHO-K1 cells by [35S]GTPgammaS binding assay; type: functional, cell-based
T2 sequence (P35462 whole entry): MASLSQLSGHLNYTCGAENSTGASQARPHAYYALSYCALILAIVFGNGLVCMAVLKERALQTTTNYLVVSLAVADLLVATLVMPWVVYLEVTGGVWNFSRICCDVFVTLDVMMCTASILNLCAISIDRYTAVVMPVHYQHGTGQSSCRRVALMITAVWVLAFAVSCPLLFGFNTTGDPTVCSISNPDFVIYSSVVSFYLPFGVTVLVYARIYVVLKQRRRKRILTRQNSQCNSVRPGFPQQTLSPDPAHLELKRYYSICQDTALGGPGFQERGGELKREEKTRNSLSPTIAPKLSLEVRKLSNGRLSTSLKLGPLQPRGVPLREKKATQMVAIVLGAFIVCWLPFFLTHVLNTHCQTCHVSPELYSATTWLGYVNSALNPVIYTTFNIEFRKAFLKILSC

[10] = target: 5-hydroxytryptamine receptor 2A (Rattus norvegicus, UniProt P14842); test: Intrinsic activity at 5HT2A receptor in Wistar rat aorta; type: tissue-based
5-hydroxytryptamine receptor 2A, sequence (P14842 whole entry): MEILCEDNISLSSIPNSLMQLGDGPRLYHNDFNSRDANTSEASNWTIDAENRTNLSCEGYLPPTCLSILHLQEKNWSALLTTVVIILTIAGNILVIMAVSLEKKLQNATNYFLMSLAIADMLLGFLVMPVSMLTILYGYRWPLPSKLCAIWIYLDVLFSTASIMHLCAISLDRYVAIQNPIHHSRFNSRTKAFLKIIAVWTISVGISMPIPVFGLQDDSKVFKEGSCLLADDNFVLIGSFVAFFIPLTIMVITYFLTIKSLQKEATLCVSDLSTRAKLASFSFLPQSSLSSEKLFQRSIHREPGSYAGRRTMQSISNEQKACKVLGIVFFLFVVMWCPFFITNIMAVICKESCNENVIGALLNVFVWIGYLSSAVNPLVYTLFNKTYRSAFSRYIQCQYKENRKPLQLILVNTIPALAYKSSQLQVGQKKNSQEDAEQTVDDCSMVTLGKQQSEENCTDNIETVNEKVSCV

D(1A) dopamine receptor = D(1A) dopamine receptor (Rattus norvegicus, UniProt P18901)
D(1A) dopamine receptor, sequence (P18901 whole entry): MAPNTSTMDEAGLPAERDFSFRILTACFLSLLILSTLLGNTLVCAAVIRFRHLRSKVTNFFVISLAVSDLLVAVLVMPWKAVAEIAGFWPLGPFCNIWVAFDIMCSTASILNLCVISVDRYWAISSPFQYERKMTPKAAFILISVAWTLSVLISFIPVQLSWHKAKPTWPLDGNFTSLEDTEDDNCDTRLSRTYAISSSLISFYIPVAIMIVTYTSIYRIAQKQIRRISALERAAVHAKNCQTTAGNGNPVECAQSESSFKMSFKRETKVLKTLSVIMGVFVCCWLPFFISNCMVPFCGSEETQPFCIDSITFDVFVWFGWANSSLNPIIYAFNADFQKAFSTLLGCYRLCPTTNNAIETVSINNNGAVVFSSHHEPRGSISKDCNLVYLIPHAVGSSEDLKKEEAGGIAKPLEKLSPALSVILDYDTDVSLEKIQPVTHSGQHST
Description: Displacement of [3H]SCH23390 from dopamine D1 receptor in CRL:CD(SD)BR-COBS rat striatum by scintillation spectrometry

[11] = target: Voltage-gated inwardly rectifying potassium channel KCNH2 (Homo sapiens, UniProt Q12809)
Voltage-gated inwardly rectifying potassium channel KCNH2, sequence (Q12809 whole entry): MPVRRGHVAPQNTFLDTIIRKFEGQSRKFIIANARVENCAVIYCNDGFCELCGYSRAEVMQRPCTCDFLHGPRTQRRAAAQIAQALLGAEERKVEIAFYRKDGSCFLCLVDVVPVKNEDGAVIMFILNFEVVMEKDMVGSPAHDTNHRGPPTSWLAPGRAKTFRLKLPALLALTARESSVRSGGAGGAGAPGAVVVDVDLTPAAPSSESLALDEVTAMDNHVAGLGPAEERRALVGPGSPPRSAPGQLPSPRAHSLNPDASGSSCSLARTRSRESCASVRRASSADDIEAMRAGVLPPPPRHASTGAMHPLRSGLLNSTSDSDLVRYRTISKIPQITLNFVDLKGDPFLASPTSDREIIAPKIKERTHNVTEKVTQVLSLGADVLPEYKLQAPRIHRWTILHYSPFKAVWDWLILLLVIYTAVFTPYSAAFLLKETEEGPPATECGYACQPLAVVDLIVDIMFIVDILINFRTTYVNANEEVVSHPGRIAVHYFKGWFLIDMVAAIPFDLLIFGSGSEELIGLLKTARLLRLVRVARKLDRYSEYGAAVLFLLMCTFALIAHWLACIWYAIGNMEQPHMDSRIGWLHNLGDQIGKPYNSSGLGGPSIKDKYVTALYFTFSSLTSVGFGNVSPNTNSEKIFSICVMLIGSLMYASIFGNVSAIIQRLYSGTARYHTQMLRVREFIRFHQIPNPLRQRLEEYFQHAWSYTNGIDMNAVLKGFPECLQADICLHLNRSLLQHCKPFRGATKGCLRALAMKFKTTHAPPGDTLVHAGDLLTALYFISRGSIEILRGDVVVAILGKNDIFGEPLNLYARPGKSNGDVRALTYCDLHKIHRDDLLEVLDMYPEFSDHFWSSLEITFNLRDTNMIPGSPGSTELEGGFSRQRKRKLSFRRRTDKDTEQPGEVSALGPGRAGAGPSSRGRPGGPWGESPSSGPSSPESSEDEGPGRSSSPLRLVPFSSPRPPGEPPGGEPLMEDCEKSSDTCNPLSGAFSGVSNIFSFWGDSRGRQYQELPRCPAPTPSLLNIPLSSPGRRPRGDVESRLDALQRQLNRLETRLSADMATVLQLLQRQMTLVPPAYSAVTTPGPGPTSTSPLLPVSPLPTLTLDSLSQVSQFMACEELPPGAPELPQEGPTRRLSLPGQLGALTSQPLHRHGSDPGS
Description: Binding affinity to human ERG expressed in HEK293 cells by whole cell patch clamp method

Mus musculus [12] = species on record: Mus musculus; conditions: in vivo, sc, 1 h
Description: Toxicity in sc dosed NMRI mouse assessed as cataleptogenic potential administered 30 mins prior to testing measured every 15 mins for 60 mins by horizontal bar test

D(3) dopamine receptor [13] = target: T2, D(3) dopamine receptor; test: biochemical
Description: Displacement of [3H]7OH-DPAT from dopamine D3 receptor expressed in Sf9 cells by scintillation spectrometry

[14] = target: T3, 5-hydroxytryptamine receptor 1A (Rattus norvegicus, UniProt P19327); test: biochemical
T3 sequence (P19327 whole entry): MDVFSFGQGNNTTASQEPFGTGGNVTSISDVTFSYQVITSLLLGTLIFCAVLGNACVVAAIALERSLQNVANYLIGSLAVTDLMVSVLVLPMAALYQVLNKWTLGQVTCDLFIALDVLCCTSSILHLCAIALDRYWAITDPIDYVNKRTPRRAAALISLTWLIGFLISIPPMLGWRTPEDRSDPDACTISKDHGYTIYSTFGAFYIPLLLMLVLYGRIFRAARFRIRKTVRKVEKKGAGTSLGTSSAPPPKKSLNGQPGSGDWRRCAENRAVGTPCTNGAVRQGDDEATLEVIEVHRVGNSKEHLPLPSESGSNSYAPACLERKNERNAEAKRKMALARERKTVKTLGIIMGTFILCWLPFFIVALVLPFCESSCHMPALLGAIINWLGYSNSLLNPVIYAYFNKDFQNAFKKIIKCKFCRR
Description: Displacement of [3H]8OH-DPAT from 5HT1A receptor in CRL:CD(SD)BR-COBS rat hippocampus by scintillation spectrometry

Mus musculus [15] = species on record: Mus musculus; test: animal or person; conditions: NMRI
Description: (§1) Antipsychotic activity in NMRI mouse assessed as reduction in methamphetamine-induced locomotor activity administered 30 mins prior to testing measured for 60 mins

Mus musculus [16] = conditions: NMRI
Description: Antipsychotic activity in NMRI mouse assessed as reduction in phencyclidine-induced locomotor activity administered 30 mins prior to testing measured for 60 mins

Mus musculus [17] = conditions: NMRI; remark: listed apart in the source
Description: as §1

Ki (Histamine H1 receptor): 15 nM
Ki [8]: 43 nM
IC50 (D(3) dopamine receptor [9]): 143 nM
IC50 [10]: 230 nM
Ki (D(1A) dopamine receptor): 3290 nM
ED50 (Mus musculus [12]): > 30 mg/kg
Ki (D(3) dopamine receptor [13]): 4.5 nM
Ki [14]: 11.9 nM
SMILES: Cc1cccc(N2CCN(CCCCNC(=O)c3cc4ccccc4o3)CC2)c1
Activity (Mus musculus [1]): Toxic
Activity (Mus musculus [2]): Active
Activity (Mus musculus [3]): Active
Activity (Mus musculus [4]): Active
Activity (Rattus norvegicus [5]): inactive
Activity (Rattus norvegicus [6]): Active
Activity (Rattus norvegicus [7]): Dose-dependent effect
Ki [11]: 930 nM
ED50 (Mus musculus [15]): 2.1 mg/kg
Activity (Mus musculus [16]): Dose-dependent effect
Activity (Mus musculus [17]): Dose-dependent effect
